# Measurements reported in patent EP3335764A1, “A STRAIN OF A[…] APPLICATIONS THEREOF” (Infinitec Activos S.L., priority 2016, dated 2018).
# System: Prostaglandin E2 (PGE2)
# Test: Anti-inflammatory activity: PGE2 quantification by ELISA in cells stimulated by IL-1α
# Assay type: cell-based
# Conditions: IL-1α (5 pM), Cycloheximide 100 µg/ml
# Description: When cells are stimulated by an inflammatory agent PGE2 is synthesized de novo and released into the extracellular space. Thus quantification of PGE2 is used to asses the anti-inflammatory activity products.
# In the present example the anti-inflammatory activity of the extract of example 2 was determined by quantification of PGE2 in cells stimulated by IL-1α using a kit for an enzyme-linked immunosorbent assay (ELISA). The kit used was Prostaglandin E2 EIA kit Item n° 514010 from Cayman Chemical.
# Prostaglandin E2 assay is based on competition between the PGE^2 to be determined and a fixed amount of added PGE2-acetylcholinesterase (AChE) conjugate (PGE2 tracer) for a limited amount of PGE2 monoclonal antibody. The amount of PGE2 tracer able to bind the PGE2 monoclonal antibody will be inversely proportional to the concentration of PGE2 in the well. Both the antibody-PGE2 complex and then antibody-PGE2 tracer complex bind to polyclonal goat anti-mouse IgG previously bound to the well. Then the plate is washed to remove any unbound reagent and Ellman's reagent is added to determine the amount of AChE bound to the well. […] The intensity of this color, determined by UV-Vis spectrophotometry, is proportional to the amount of PGE2 tracer bound […], which is inversely proportional to the amount of PGE2 present in the free well during incubation.
smiles,measurement,value
C[C@@H]1C[C@@H]([C@H](O)CC2CC(=O)NC(=O)C2)C(=O)[C@@H](C)C1 [Cycloheximide],PGE2,31.85 pg/mL
same,inhibition at 100 µg/mL,97.6%
